The source of these data is US5464834A, “N-substituted N'-heterobicyclic piperazines having pharmaceutical activity” (Adir et Compagnie, priority 1992, dated 1995).

Molecules are shown by their SMILES.

What all share (type): in vivo, rat (male Wistar)
What all share (design): from tissue; host or cells: whole living male Wistar rats (endogenous receptor)

Experiment [1] has as its target T1, 5HT1A receptors (Rattus norvegicus, UniProt P19327).
T1 sequence (P19327 1-422): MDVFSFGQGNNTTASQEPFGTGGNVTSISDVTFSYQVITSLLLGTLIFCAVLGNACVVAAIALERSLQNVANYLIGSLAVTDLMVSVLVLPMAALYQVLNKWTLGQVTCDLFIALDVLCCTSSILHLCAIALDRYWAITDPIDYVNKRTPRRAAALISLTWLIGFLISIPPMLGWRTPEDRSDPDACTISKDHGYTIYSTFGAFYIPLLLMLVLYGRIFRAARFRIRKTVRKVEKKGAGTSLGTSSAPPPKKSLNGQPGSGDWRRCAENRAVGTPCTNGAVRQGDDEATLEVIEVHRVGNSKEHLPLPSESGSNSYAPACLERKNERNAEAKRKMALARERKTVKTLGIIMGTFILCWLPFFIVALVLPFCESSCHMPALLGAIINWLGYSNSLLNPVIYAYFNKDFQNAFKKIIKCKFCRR
In words: Spontaneous tail flick (STF) test, agonist (alone) and antagonist (vs 8-OH-DPAT). The protocol: (§1) The tests were carried out using male Wistar rats weighing 200 to 220 g having free access to their food and to their drinking water in standard cages.
(§2) The animals are isolated individually for the tests for hypothermia, corticosterone secretion and flat body posture, or combined in groups of three for the tailflick test.
(§3) The compounds to be studied were administered by the subcutaneous route (s.c.) 60 minutes before the beginning of the test, that is to say 30 minutes before the solvent (agonist responses) or the 8-OH-DPAT (antagonist responses).
(§4) In all of the tests the solvent is used in parallel as a control. The animals were left to rest in their cage during the period between the injections and the evaluation. For the agonist studies, the solvent was administered at 1 ml/kg s.c. 30 minutes before the beginning of the test. For the antagonist studies, doses of 8-OH-DPAT that induce sub-maximal responses were chosen, that is doses of 0.63, 0.16, 0.16 and 0.16 mg/kg s.c. for, respectively, the tail flick test, flat body posture test, corticosterone secretion test and hypothermia test.
The tail flicks were determined on the animals in horizontal opaque plastics cylinders with the tail of the animals hanging freely on the edge of the laboratory work bench. After allowing 5 minutes for adaptation, the number of movements made in 5 minutes was recorded. An STF is defined as being an elevation of the tail to a level higher than that of the axis of the body [Millan M. J. et al., J. Pharmacol. Exp. Ther., 256, 973-982 (1990)].
(§5) In general, after variance analysis, the results are subjected to the Dunett test. The results are taken as significant if p <0.05.
(§6) The doses of the compounds tested are all expressed in base terms. Unless specified otherwise, all of the compounds were dissolved in sterile water (to which if necessary a few drops of lactic acid were added) and administered at a volume of 1 ml/kg s.c.

Experiment [2] addresses T1, 5HT1A receptors. In words: Flat body posture (FBP), agonist (alone) and antagonist (vs 8-OH-DPAT). As to conditions: for ED50: rat, sc. The method, then:
as §1, §2, §3, §4
The same animals were used to evaluate the influence of the compounds studied on FBP and on the determination of the plasma concentration of CS. All of the tests were carried out in the morning between 10.30 and 12.300 that is to say when the circadian levels of CS are lowest.
25 minutes after the treatment (that is to say 5 minutes before decapitation) the animals are observed in their cages and the presence or absence of FBP is noted.
The presence of FBP is defined by a characteristic posture of the animal. That posture is in the ventral decubitus position with the posterior limbs clearly extended. 5 minutes after the observation of FBP, the animals are decapitated and the blood from the trunk is collected in cooled tubes containing 50 μl of a 10% EDTA solution. After centrifugation at 4000 revs/min, the plasma is removed and stored at -30° C. until determination.
as §5
For the dose-response for the induction and inhibition of FBP, the ED50 values (doses at which 50% of the animals show a response) were calculated by the Litchfield and Wilcoxon method.
as §6

Experiment [3] addresses T1, 5HT1A receptors. In words: Body temperature / hypothermia, agonist (alone) and antagonist (vs 8-OH-DPAT). The protocol:
as §1, §2, §3, §4
The rats are immobilised and a lubricated digital thermometer (Termistroprobe of Testotherm, Basle, Switzerland) is inserted into the rectum to a depth of 5 cm. 30 seconds after insertion, the temperature is read on a digital scale. The percentage inhibition is calculated using the formula given above.
as §5, §6

In experiment [4] the target is T1, 5HT1A receptors. In words: Drug discrimination (DD) 8-OH-DPAT. The conditions noted are these: for ED50: rat, sc, rats trained on 8-OH-DPAT 0.31 mg/kg. The method, then:
as §1
Male rats are maintained at 85% of their normal body weight by means of food restriction. In soundproofed chambers the animals are trained to press a pedal to obtain food according to an FR10 procedure (Fixed Ratio 10; the food is supplied to the rat when it has pressed the lever 10 times).
Daily sessions of 15 minutes are preceded by an injection of solvent or of the training drug (0.31 mg/kg of 8-OH-DPAT, j.p.). The animal receives a pellet of food after pressing 10 times on the "solvent" or "drug" pedal according to the compound administered before the session.
After the learning period the animals are tested twice a week (Wednesday and Friday). On the other three days training sessions are carried out.
On the training days the rats are given either solvent or 8-OH-DPAT 15 minutes before being tested.
On the test days the rats receive the chemical substance 60 minutes before the session.
The capacity of the chemical substance administered to induce a response (pressing on the "solvent" or "drug" (8-OH-DPAT ) lever ) is recorded.
7 animals chosen at random are used for each substance and for each dose. During the test period, the lever on which the rat first presses 10 times is determined as the lever chosen--a food pellet is then delivered. That selected lever will be reinforced by the delivery of food up to the end of the test session. The percentage of animals selecting the "drug" lever at a particular dose is calculated. In addition, the total number of responses carried out on the two levers is expressed as a percentage of the number of responses carried out on the "solvent" lever obtained on the occasion of a preceding training session.
as §6

Where [5] appears, read: agonist test, compound alone s.c., minimum effective dose vs control.

For `c1cc2c(c(N3CCN(CCCc4ccsc4)CC3)c1)OCCO2` [Example 1, 4-(Benzodioxan-5-yl)-1-[3-(thiophen-3-yl)propyl]piperazine], the “STFs MED alone” value at 5HT1A receptors [1] (setting [5]) is greater than 10.0 mg/kg. Besides, the ED50 on 5HT1A receptors [1] (rat, sc, antagonist test, s.c., vs 8-OH-DPAT 0.63 mg/kg s.c., read-out: STFs ID50 (95% CL) + DPAT) is 0.12 mg/kg; on 5HT1A receptors [2] (agonist test, compound alone s.c., read-out: FBP ED50 (95% CL) alone), greater than 10 mg/kg; at 5HT1A receptors [2] (antagonist test, s.c., vs 8-OH-DPAT 0.16 mg/kg s.c., read-out: FBP ID50 (95% CL) + DPAT) it was 0.48 mg/kg; on 5HT1A receptors [3] (rat, sc, antagonist test, s.c., vs 8-OH-DPAT 0.16 mg/kg s.c., read-out: HYPOTHERMIA ID50 (95% CL) + DPAT) it was 0.16 mg/kg; at 5HT1A receptors [4] (antagonist, vs 8-OH-DPAT, read-out: DD 8-OH-DPAT ID50 (95% CL) + DPAT), 0.63 mg/kg; on 5HT1A receptors [4] (compound alone, 60 min before session, read-out: DD 8-OH-DPAT ED50 (95% CL) alone), greater than 2.5 mg/kg. Further, the “% MPA (% maximum possible antagonism), STFs” value on 5HT1A receptors [1] (vs 8-OH-DPAT 0.63 mg/kg s.c.) is 92%. The “% MPA (% maximum possible antagonism), FBP” value at 5HT1A receptors [2] (vs 8-OH-DPAT 0.16 mg/kg s.c.) turned out to be 100%. Besides, the “HYPOTHERMIA MED alone” value on 5HT1A receptors [3] (setting [5]) is 10.0 mg/kg. Also, the “% MPA (% maximum possible antagonism), HYPOTHERMIA” value at 5HT1A receptors [3] (vs 8-OH-DPAT 0.16 mg/kg s.c.) worked out at 98%. Moreover, the “% MPA (% maximum possible antagonism), DD” value on 5HT1A receptors [4] (vs 8-OH-DPAT) is 100%.
